Among the data in PubChem BioAssay (NCI) are TGI and GI50 values, retold here.

Structures are written as SMILES. Where “and” joins values, the source holds several entries; their conditions need not be identical. Equal entries are not always repeated.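 In this assay, cells in 96-well plates receive the compound at five concentrations for 48 hours. Endpoints are linearly interpolated between the surrounding concentrations. GI50 is the concentration that inhibits growth by half. TGI denotes the concentration required for complete inhibition of growth.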

What all share (experiment): NCI tumour cell line growth inhibition, 48 h
In assay [1] the test system is A498 renal.
Assay [2] deals with CCRF-CEM leukemia.
Assay [3] relates to COLO 205 colon.
Assay [4] deals with EKVX NSCLC.
The subject of assay [5] is HOP-92 NSCLC.
The test system of assay [6] is HS 578T breast.
The subject of assay [7] is IGROV1 ovarian.
The test system of assay [8] is LOX IMVI melanoma.
Assay [9] concerns RPMI-8226 leukemia.
The test system of assay [10] is U251 CNS.

In the case of `Nc1ccc(S(=O)(=O)NCc2nccs2)cc1`, the TGI worked out at 33.4 µM in assay [1]; 38.2 µM in [2]; 32.7 µM in [3]; 40.7 µM in assay [4]; 41.4 µM in assay [5]; 68.4 µM in [6]. The TGI in assay [7] worked out at 56.8 µM; in assay [8], 41.7 µM; in assay [9], 56.1 µM; in assay [10] it was 47.5 µM.
As to `CC[C@@]1(O)C(=O)OCc2c1cc1n(c2=O)Cc2cc3cc(N)ccc3nc2-1`, the GI50 is 0.0277 µM and 0.0376 µM in [1]; 0.1 µM in assay [2]; 0.0618 µM and 0.102 µM in assay [3]; 0.304 µM and 0.348 µM in assay [4]; 0.0132 µM and < 0.025 µM in assay [5]; 0.532 µM and 2.41 µM in assay [6]. The GI50 in assay [7] is 0.056 µM; in assay [8] it was 0.0202 µM; in [9], 0.106 µM and 0.0994 µM; in assay [10] it was 0.0013 µM. Further, the TGI in assay [1] is 0.143 µM and 0.152 µM; in assay [3], 2.86 µM and 1.26 µM; in assay [4], 9.06 µM and 44 µM; in assay [5], 0.773 µM and 0.247 µM; in assay [7], 3.06 µM and 2.21 µM; in [8] it was 0.207 µM and 0.0665 µM. Besides, the TGI in assay [9] is 4.45 µM; in assay [10] it was 0.134 µM.
`CCN(CC)CCNc1n[n+]([O-])c2ccccc2[n+]1[O-]`: the GI50 was 5.47 µM and 2.54 µM in [1]; 2.28 µM and 7.45 µM in assay [5]. The TGI is 9.39 µM and 9.85 µM in assay [1]; 13.7 µM and 30.6 µM in [2]; 19.9 µM and 26 µM in assay [3]; 44 µM in [4]; > 21.8 µM and 46.6 µM in assay [5]; 97.5 µM in assay [6]. Besides, the TGI in assay [7] was 10.3 µM and 17 µM; in assay [8] it was 28.3 µM; in [9] it was 18.9 µM and 20.5 µM; in [10], > 52.4 µM and 36.9 µM.
`CCN(CC)CCCC(C)Nc1c2ccc(C)cc2nc2ccc(OC)cc12` (centres undefined): the GI50 in assay [1] is 0.863 µM; in assay [2], 1.82 µM; in assay [3] it was 1.21 µM; in [4] it was 2.35 µM; in [5] it was 0.885 µM; in [6] it was 3.26 µM. Also, the GI50 in assay [7] is 0.514 µM; in assay [8] it was 1.38 µM; in [9] it was 1.75 µM; in assay [10], 1.35 µM. Moreover, the TGI in assay [1] was determined as 13.8 µM; in [2], 9.9 µM; in assay [3] it was 2.96 µM; in [4], 16 µM; in assay [5] it was 5.1 µM; in assay [6] it was 17.2 µM. Further, the TGI in assay [7] stood at 3.12 µM; in assay [8], 3.7 µM; in [9] it was 5.05 µM; in [10], 4.45 µM.
Turning to `COC(=O)CCC1=C(C)/C(=C/c2[nH]c(-c3ccc[nH]3)cc2OC)N=C1C`, the GI50 is 4.71 µM in assay [1]; 0.306 µM in assay [2]; 0.618 µM in assay [3]; 1.46 µM in assay [4]; 0.191 µM in [5]; 1.04 µM in assay [6]. For the same molecule, the GI50 in assay [7] is 1.4 µM; in assay [8], 0.17 µM; in [9], 0.272 µM; in assay [10], 0.343 µM. For the same molecule, the TGI in assay [1] was found to be 18.5 µM; in assay [2], 6.5 µM; in assay [3] it was 1.72 µM; in [4], 10.8 µM; in [5], 0.571 µM; in assay [6], 9.01 µM. Besides, the TGI in assay [7] was 12 µM; in [8], 0.612 µM; in [9], 1.38 µM; in assay [10] it was 2.43 µM.
For the molecule `COc1ccc(Cl)cc1Nc1nc(C(F)(F)F)ccc1C(=O)N/N=C/c1cc(OC)c(OC)c(OC)c1`, the GI50 was 2.19 µM in [1]; 1.27 µM in assay [2]; 2.62 µM in assay [3]; 1.36 µM in [4]; 2.09 µM in [5]; 1.94 µM in assay [6]. The GI50 in assay [7] is 0.346 µM; in [8], 1.25 µM; in assay [9] it was greater than 100 µM; in assay [10], 1.75 µM. Besides, the TGI is 7.65 µM in assay [1]; greater than 100 µM in assay [2]; 8.33 µM in assay [3]; 13.5 µM in assay [4]; 7.56 µM in assay [5]; 4.67 µM in assay [6]. Also, the TGI in assay [7] was 2.3 µM; in assay [8], 3.28 µM; in assay [9] it was greater than 100 µM; in [10], 15.1 µM.
Turning to `CSc1ccc(/C=C2\C=C(CC(=O)NCc3ccc(C(=O)c4ccccc4)cc3)c3cc(F)ccc32)cc1`, the GI50 in [1] is 0.0364 µM; in assay [2], 0.0337 µM; in assay [3], 0.19 µM; in assay [4], 0.423 µM; in assay [5], 0.179 µM; in assay [6], 0.0457 µM. Further, the GI50 was 0.0848 µM in [7], 0.069 µM in assay [8], 0.0648 µM in [9] and 0.0379 µM in assay [10]. The TGI in assay [1] is 0.902 µM; in assay [2], 38.9 µM; in assay [3], 0.431 µM; in assay [4], greater than 100 µM; in assay [5], 6 µM; in assay [6] it was 13 µM. Besides, the TGI in [7] was 17.7 µM; in assay [8], 6.47 µM; in assay [9], greater than 68.3 µM; in assay [10], 2.33 µM.
With `Cc1nc(C(N)=S)sc1C(=O)C/C(=N/N)C(=O)Nc1cccc(Cl)c1C`, the TGI in assay [1], in [2], in assay [4], in assay [5], in assay [6] and in assay [7] was greater than 100 µM throughout. Further, the TGI in [8], in assay [9] and in assay [10] was greater than 100 µM in each case.
For the molecule `O=Cc1ccc(-c2cccs2)s1`, the TGI is 5.21 µM in [1]; greater than 100 µM in assay [2]; 54.8 µM in assay [3]; greater than 96.6 µM in assay [4]; greater than 68.1 µM in [5]; 98 µM in assay [6]. For the same molecule, the TGI in [7] was 47.4 µM; in assay [8], greater than 100 µM; in [9], greater than 100 µM; in assay [10] it was greater than 93.8 µM.
